Data on 4 compounds can be found in article PMC5224920, “Assessing the mechanism and therapeutic potential of modulators of the human Mediator complex-associated protein kinases” (eLife, 2016).

For one data set, the target named is T1, CDK19 (Homo sapiens, UniProt Q9BWU1).
T1 construct: purchased Proteros Biostructures GmbH (Germany), assay service
Put plainly: CDK19 reporter displacement assay. It is filed as binding. Particulars: mean ± s.d. (at least three) or *± range (two repeats); read-out: CDK19 IC50.

A further data set can be described thus: Mouse PK. Particulars: 0.2mg/kg i.v. It counts as in vivo.
A short description of the next data set: Rat PK. It counts as in vivo.
A short description of another data set: Dog PK. It is filed as in vivo.
Another data set deals with TRK3B. Put plainly: Off-target kinase IC50, TRK3B. It is filed as biochemical.
For data set [1], the system named is COLO205. The experiment in a line: 24 hour TCF/LEF reporter assay, COLO205. It is filed as cell-based. To be noted: Homo sapiens, COLO 205, 24 h, read-out: 24 hour TCF/LEF Reporter assay IC50; COLO205; mean (s.d.), n = 4.
Data set [2] deals with DLD1. Put plainly: 24 hour TCF/LEF reporter assay, DLD1. It is filed as cell-based. Particulars: Homo sapiens, DLD-1, 24 h, read-out: 24 hour TCF/LEF Reporter assay IC50; DLD1; mean (s.d.), n = 4.
Data set [3] concerns LS180. The experiment in a line: 24 hour TCF/LEF reporter assay, LS180. Particulars: Homo sapiens, 24 h, read-out: 24 hour TCF/LEF Reporter assay IC50; LS180; mean (s.d.), n = 4. It is filed as cell-based.
Data set [4] has as its system LS174T. Put plainly: 24 hour TCF/LEF reporter assay, LS174T. To be noted: Homo sapiens, read-out: 24 hour TCF/LEF Reporter assay IC50, mean (s.d.), n = 4. It is filed as cell-based.
Data set [5] concerns RKO. The experiment in a line: 24 hour reporter assay, RKO negative control (EEF1A1 promoter-reporter). It counts as cell-based. To be noted: Homo sapiens, read-out: 24 hour TCF/LEF Reporter assay IC50, RKO negative control, WNT-independent EEF1A1 promoter-reporter.
The subject of data set [6] is SW837. The experiment in a line: 24 hour TCF/LEF reporter assay, SW837. To be noted: Homo sapiens, 24 h, read-out: 24 hour TCF/LEF Reporter assay IC50; SW837; mean (s.d.), n = 4. It counts as cell-based.
The subject of data set [7] is PDX soft agar colony cultures. Put plainly: Soft agar clonogenic assay, cells from 89 PDX models. Particulars: soft agar clonogenic assays; in one-third of PDX cell cultures. It is filed as cell-based, human. From the text: To follow up our standard xenograft experiments, we next tested compound activity in human patient-derived tumor xenograft models (PDXs). Firstly, we determined if our compounds were active in in vitro soft agar clonogenic assays, using cells derived from 89 distinct PDX models from different tissue types. In this assay, colony growth was inhibited, but only by up to 50%, in one-third of PDX cell cultures treated with tool compound 2 (Figure 3A–B). Six of the more sensitive colorectal PDX tumor models were selected for in vivo monotherapy either with the lead compound 3 alone, or combined with a standard of care drug (irinotecan or oxaliplatin). […] Importantly, the combination of 3 with standard of care therapies was only of statistically significant benefit in one colorectal tumor model, CFX 1034 (p<0.001; Figure 3C and Figure 3—figure supplement 1).

The test system of the next data set is Nomo-1. The experiment in a line: Soft agar assay, Nomo-1 AML cell line. It counts as cell-based. To be noted: Homo sapiens. From the text:
The most CDK8/19 inhibitor sensitive cell model in the soft agar assays was one of the two acute myeloid leukaemia (AML) cell lines, Nomo-1, included in the cell panel.

The test system of data set [8] is RKO. Put plainly: 96 hour proliferation GI50, RKO. To be noted: Homo sapiens, read-out: 96 hour GI50.
Another data set has as its system HT29. The experiment in a line: 96 hour proliferation GI50, HT29. Particulars: Homo sapiens, HT-29, 96 h, read-out: 96 hour GI50.
Data set [9] relates to DLD1. Put plainly: 96 hour proliferation GI50, DLD1. To be noted: Homo sapiens, DLD-1, 96 h, read-out: 96 hour GI50.
Another data set has as its system SW948. The experiment in a line: 96 hour proliferation GI50, SW948. Particulars: Homo sapiens, SW948, 96 h, read-out: 96 hour GI50.
Another data set deals with LS513. The experiment in a line: 96 hour proliferation GI50, LS513. Particulars: Homo sapiens, LS-513, 96 h, read-out: 96 hour GI50.
Data set [10] concerns LS180. The experiment in a line: 96 hour proliferation GI50, LS180. Particulars: Homo sapiens, LS180, 96 h, read-out: 96 hour GI50.
The test system of a further data set is SW620. The experiment in a line: 96 hour proliferation GI50, SW620. To be noted: Homo sapiens, SW-620, 96 h, read-out: 96 hour GI50.
Data set [11] concerns SW837. The experiment in a line: 96 hour proliferation GI50, SW837. Particulars: Homo sapiens, SW837, 96 h, read-out: 96 hour GI50.
In data set [12] the test system is LS174T. The experiment in a line: 96 hour proliferation GI50, LS174T. Particulars: Homo sapiens, read-out: 96 hour GI50.
For data set [13], the system named is COLO205. The experiment in a line: 96 hour proliferation GI50, COLO205. To be noted: Homo sapiens, COLO 205, 96 h, read-out: 96 hour GI50.
Data set [14] deals with LS174T. Put plainly: LS174T basal WNT-pathway luciferase reporter. To be noted: Homo sapiens, LS174T, read-out: LS174T IC50.
Another data set deals with p-STAT1^SER727. Put plainly: Inhibition of STAT1 SER727 phosphorylation in cells (target-engagement biomarker).
Data set [15] concerns mouse KS483 osteoprogenitor cells. Put plainly: Bone formation assay in KS483 osteoprogenitor cells (PINP, calcium). It is filed as cell-based. To be noted: 13 d. On the procedure:
Bone formation assays were conducted by Pharmatest (Finland) in mouse KS483 osteoprogenitor cells cultured for 13 d with LGK974 or 3. The amount of PINP secreted into the culture medium, and calcium deposition, were measured by ELISA (Roche Diagnostics, UK).

In a further data set the target is CDK8 (Homo sapiens, UniProt P49336). Put plainly: CDK8 binding (Lanthascreen binding competition / reporter displacement assay). To be noted: mean ± s.d. (at least three) or *± range (two repeats); read-out: CDK8 IC50.
The next data set has as its target 7dF3. Put plainly: 7dF3 inducible WNT-pathway luciferase reporter.
Setting [16] is: read-out: p-STAT1^SER727 IC50, mean ± s.d. or *± range.
[17] abbreviates: read-out: p-STAT1^SER727 IC50; mean ± s.d. or *± range.

Read-outs that look alike come from different tables or passages of the source. A value given as a limit tells only on which side of the number the result lay.

Chain of CDK8 (P49336 whole entry): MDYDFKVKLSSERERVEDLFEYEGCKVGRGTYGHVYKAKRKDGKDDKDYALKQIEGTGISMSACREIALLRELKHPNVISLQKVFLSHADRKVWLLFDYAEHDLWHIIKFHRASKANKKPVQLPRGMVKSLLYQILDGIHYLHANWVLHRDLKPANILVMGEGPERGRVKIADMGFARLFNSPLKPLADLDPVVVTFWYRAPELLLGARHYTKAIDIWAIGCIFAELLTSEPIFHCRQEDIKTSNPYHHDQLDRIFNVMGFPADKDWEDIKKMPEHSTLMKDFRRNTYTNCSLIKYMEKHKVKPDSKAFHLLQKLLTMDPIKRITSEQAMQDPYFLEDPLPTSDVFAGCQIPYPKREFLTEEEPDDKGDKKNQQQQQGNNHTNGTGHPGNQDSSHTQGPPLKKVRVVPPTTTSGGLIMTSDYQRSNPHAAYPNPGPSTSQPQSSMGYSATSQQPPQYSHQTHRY
Chain of CDK8 (P24863 whole entry partner): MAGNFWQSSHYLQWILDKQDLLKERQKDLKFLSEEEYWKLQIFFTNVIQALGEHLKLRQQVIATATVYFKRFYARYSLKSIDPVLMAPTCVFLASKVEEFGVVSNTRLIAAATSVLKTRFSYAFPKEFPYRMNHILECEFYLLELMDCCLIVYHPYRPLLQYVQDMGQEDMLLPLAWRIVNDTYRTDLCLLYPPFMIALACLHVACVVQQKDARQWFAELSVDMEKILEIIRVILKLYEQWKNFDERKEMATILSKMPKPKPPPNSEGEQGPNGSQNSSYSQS
T1 sequence (Q9BWU1 whole entry): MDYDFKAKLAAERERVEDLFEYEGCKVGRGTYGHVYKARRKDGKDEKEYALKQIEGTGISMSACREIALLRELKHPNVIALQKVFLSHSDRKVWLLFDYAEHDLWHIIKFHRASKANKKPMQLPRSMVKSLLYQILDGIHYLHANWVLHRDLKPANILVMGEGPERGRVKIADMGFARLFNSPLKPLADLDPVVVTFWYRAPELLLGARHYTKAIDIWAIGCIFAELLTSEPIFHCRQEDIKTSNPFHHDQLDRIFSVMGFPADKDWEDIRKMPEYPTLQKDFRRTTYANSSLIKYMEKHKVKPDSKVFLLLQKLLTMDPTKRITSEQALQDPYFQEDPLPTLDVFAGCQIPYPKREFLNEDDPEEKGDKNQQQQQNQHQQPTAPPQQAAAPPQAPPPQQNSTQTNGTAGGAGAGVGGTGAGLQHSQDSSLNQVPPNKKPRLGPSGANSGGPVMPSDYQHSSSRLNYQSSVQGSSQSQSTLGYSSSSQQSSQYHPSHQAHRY
T1 sequence (P24863 whole entry partner): as the sequence (P24863 whole entry partner) above

Regarding `CN1c2ccc(-c3cncc(Cl)c3N3CCC4(CC3)CNC(=O)O4)cc2CS1(=O)=O` [CMPD 2], the IC50 at CDK19 turned out to be 1.6 ± 0.2 nM; on TRK3B, 82 nM; with COLO205 [1], 8 nM; with DLD1 [2], 63 nM; with LS180 [3] it was 8 nM; in the data set with LS174T [4], 20 nM. Further, the IC50 was greater than 30000 nM in the data set on RKO [5]; 6 nM with SW837 [6]; 10.8 ± 4.2 nM with LS174T [14]; 4.8 ± 5.5 nM in the data set on p-STAT1^SER727 (setting [16]); 4.7 ± 5.5 nM in the data set on p-STAT1^SER727 (setting [17]). Besides, the “Mouse PK Cl” value in “Mouse PK” came out at 47.7 mL/min/kg. The “Mouse PK Vd” value in the data set “Mouse PK” was found to be 1.34 L/kg. For the same compound, in “Rat PK” (0.2mg/kg i.v. or 0.5mg/kg p.o.), the “Rat PK F” value stood at 12%. Further, the Vd in “Rat PK” (male, Wistar, rat, in vivo, iv, 0.2mg/kg i.v.) amounted to 2.82 L/kg; in “Dog PK” (female, beagle, dog, in vivo, iv, 0.2mg/kg i.v.), 1.29 L/kg. Also, the clearance in the data set “Rat PK” (male, Wistar, rat, in vivo, iv, 0.2mg/kg i.v., read-out: Rat PK Cl (converted)) is 50 mL/min/kg; in “Dog PK” (female, beagle, dog, in vivo, iv, 0.2mg/kg i.v., read-out: Dog PK Cl (converted)) it was 32.2 mL/min/kg. The “Dog PK F” value in the data set “Dog PK” (0.2mg/kg i.v. or 0.5mg/kg p.o.) amounted to 43%. Moreover, the “Inhibition of colony growth” value in data set [7] is recorded as “up to 50%”. For the same compound, the GI50 is 11 nM in the data set with Nomo-1; greater than 30000 nM in the data set with RKO [8]; greater than 30000 nM in the data set on HT29; greater than 30000 nM in the data set on DLD1 [9]; greater than 30000 nM in the data set with SW948; greater than 30000 nM in the data set on LS513. Also, the GI50 in the data set on LS180 [10], in the data set with SW620, in the data set with SW837 [11], in the data set on LS174T [12] and in the data set on COLO205 [13] was greater than 30000 nM in each case.
As for `Cc1cc(-c2ncc(CC(=O)Nc3ccc(-c4cnccn4)cn3)cc2C)ccn1` [LGK974, reference compound], in data set [15], the Calcium deposition entry was “reduced deposition of calcium” and the PINP secretion entry is “reduced secretion”.
In the case of `N#Cc1ccc2ncnc(NCCc3ccccc3)c2c1` [Senexin A, reference compound], the IC50 on CDK8 came to 86 ± 5.3 nM; on CDK19, 111 ± 15.2 nM; on 7dF3 (read-out: 7dF3 IC50, inducible WNT-pathway luciferase reporter, mean ± s.d. or *± range) it was 340 ± 127 nM; with p-STAT1^SER727 (setting [17]), 730 ± 113 nM.
Regarding `CN1CCN(C(=O)c2ccc3cc(CCNc4ncnc5ccc(C#N)cc45)ccc3c2)CC1` [Senexin B], the IC50 stood at 28.9 ± 3.3 nM on CDK8; 160 ± 49 nM with 7dF3 (7dF3, read-out: 7dF3 IC50); 740 ± 14 nM in the data set on p-STAT1^SER727 (setting [16]).
